Holding throughout (type): cell-based
In assay [1] the target is T1, hNLRP3 (Homo sapiens, UniProt Q96P20).
T1 construct: THP-1 cells were purchased from the American Type Culture Collection; host or cells: THP-1 cells, PMA-differentiated
The experiment in a line: hNLRP3 agonist assay: IL-1β production in PMA-differentiated THP-1 cells (ELISA). As to conditions: Table 2, 4 hours, IL-1β by ELISA. The method, then: THP-1 cells were purchased from the American Type Culture Collection and sub-cultured according to instructions from the supplier. Prior to experiments, cells were cultured in RPMI 1640 containing 10% heat inactivated FBS, penicillin (100 units/ml) and streptomycin (100 μg/ml), and maintained in log phase prior to experimental setup. Prior to the experiment THP-1 were treated with PMA (Phorbol 12-myristate 13-acetate) (10 μg/ml) for 24 hours. The day of the experiment the media was removed and attaching cells were treated with trypsin for 2 minutes, cells were then collected, washed with PBS (phosphate buffer saline), spin down, resuspended in 2% heat inactivated FBS with RPMI at a concentration of 1×10^6 cells/ml, and 100 μl was plated in a 96 well plate. Cells were incubated with compounds for 4 hours. Cell free supernatant was collected and the production of IL-1β was evaluated by ELISA. Compounds were dissolved in dimethyl sulfoxide (DMSO) and added to the culture medium to achieve desired concentration (e.g. 100, 30, 10, 3, 1, 0.3 or 0.1 μM). A vehicle only control was run concurrently with each experiment. Final DMSO concentration was 1%.
(In general: An ELISA detects its analyte on a solid surface through an enzyme-linked reagent.)

Assay [2] has as its target T2, TLR7 (Homo sapiens, UniProt Q9NYK1).
T2 sequence (Q9NYK1 27-1049): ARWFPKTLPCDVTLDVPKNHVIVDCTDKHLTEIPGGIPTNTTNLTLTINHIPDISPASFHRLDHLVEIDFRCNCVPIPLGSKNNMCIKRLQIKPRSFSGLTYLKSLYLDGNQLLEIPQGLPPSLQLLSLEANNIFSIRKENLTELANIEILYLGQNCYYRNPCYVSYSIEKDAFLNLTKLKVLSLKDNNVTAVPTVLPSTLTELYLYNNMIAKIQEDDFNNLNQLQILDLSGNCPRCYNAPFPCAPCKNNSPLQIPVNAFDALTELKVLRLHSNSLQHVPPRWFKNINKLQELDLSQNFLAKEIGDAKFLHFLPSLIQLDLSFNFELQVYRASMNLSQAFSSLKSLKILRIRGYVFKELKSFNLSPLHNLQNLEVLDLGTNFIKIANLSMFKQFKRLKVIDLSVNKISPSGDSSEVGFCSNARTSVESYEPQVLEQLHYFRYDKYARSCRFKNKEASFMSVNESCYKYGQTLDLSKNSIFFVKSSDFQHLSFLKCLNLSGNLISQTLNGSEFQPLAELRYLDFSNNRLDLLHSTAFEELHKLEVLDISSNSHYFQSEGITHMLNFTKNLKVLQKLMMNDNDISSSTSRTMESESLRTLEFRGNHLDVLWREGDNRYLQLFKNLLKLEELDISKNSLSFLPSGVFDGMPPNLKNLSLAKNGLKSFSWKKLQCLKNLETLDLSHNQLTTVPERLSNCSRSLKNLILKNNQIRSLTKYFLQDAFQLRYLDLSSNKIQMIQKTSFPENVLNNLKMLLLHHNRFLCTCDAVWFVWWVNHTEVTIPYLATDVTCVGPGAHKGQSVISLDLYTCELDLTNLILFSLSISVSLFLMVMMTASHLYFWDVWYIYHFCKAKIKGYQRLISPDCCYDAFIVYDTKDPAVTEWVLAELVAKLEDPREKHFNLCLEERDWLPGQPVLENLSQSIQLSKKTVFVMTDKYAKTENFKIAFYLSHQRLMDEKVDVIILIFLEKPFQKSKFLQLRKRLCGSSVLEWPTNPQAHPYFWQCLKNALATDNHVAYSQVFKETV
The experiment in a line: TLR7 EC50 assay. The note with it: Table 2.

The target in assay [3] is T3, TLR8 (Homo sapiens, UniProt Q9NR97).
T3 sequence (Q9NR97 27-1041): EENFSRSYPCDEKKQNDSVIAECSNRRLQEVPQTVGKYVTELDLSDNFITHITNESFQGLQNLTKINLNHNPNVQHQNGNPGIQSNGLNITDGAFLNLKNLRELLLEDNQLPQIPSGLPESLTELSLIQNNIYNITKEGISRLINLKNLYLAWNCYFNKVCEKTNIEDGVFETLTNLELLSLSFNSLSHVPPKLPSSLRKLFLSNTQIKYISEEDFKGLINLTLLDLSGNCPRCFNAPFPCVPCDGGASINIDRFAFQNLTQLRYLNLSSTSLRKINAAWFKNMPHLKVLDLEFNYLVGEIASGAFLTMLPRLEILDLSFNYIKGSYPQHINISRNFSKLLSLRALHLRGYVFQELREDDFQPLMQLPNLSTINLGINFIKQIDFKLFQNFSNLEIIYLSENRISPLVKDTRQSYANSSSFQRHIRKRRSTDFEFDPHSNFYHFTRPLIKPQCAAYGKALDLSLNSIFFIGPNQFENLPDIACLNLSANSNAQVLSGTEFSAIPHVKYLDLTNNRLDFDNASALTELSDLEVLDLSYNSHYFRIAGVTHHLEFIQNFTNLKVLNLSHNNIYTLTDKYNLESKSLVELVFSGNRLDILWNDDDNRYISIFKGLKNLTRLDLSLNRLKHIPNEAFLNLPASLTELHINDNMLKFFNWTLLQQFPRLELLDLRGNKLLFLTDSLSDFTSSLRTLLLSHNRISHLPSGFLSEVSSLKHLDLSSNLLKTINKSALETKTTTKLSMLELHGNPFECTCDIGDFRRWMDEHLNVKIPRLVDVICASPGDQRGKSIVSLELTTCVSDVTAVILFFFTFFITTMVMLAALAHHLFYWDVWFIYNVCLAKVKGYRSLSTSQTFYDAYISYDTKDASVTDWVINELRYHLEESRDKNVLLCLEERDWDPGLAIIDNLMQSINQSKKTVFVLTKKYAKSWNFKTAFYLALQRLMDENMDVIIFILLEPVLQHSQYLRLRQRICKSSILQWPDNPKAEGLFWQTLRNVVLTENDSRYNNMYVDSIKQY
The experiment in a line: TLR8 EC50 assay. The note with it: Table 2.

Molecules are shown by their SMILES.

This passage reports EC50 results from US11072612B2, “NLRP3 modulators” (INNATE TUMOR IMMUNITY, INC., priority 2016, dated 2021).

T1 sequence (Q96P20 whole entry): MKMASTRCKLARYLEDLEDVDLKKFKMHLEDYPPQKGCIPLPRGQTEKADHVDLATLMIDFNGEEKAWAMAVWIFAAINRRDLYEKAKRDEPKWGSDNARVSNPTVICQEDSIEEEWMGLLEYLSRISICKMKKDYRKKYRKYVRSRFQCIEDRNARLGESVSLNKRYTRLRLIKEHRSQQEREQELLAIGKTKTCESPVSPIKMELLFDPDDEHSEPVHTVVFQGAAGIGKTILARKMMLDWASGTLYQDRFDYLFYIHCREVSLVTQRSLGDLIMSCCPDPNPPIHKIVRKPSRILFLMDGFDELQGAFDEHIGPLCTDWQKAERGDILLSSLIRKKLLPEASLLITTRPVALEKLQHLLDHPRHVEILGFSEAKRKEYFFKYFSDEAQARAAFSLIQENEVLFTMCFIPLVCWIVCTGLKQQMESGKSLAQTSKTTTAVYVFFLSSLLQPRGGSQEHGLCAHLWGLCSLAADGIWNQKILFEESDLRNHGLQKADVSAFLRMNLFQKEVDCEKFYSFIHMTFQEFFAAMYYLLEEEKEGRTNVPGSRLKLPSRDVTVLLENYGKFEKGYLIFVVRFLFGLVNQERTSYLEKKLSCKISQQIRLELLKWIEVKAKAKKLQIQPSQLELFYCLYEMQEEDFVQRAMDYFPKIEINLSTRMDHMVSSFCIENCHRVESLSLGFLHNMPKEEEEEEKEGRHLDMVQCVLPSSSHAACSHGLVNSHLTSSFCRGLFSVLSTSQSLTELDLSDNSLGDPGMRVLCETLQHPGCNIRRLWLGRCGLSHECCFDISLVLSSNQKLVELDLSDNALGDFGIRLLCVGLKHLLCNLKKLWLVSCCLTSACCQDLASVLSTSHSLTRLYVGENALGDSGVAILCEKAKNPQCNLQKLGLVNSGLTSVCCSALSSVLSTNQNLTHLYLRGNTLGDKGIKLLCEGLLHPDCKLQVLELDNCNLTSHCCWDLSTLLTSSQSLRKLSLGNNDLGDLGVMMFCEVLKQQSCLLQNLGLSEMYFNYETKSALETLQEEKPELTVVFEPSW

In the case of `Cn1c(CCCO)nc2c(N)nc3cc(-n4cccn4)ccc3c21` [Compound 108], the figures for the concentration giving a half-maximal response (EC50) in assay [1], in assay [2] and in assay [3] were not above 1 µM, more than 100 µM and more than 100 µM, respectively.

With `COc1ccccc1-c1ccc2c(c1)nc(N)c1nc(CCCO)[nH]c12` [Compound 201, 3-[4-amino-7-(2-methoxyphenyl)-1H-imidazo[4,5-c]quinolin-2-yl]propan-1-ol], the concentration giving a half-maximal response (EC50) in assay [1], in assay [2] and in assay [3] was more than 100 µM in each case.

Regarding `COc1cncc(-c2ccc3c(c2)nc(N)c2nc(CCCO)[nH]c23)c1` [Compound 175, 3-[4-amino-7-(5-methoxypyridin-3-yl)-1H-imidazo[4,5-c]quinolin-2-yl]propan-1-ol], the half-maximal effective concentration (EC50) in assay [1], in assay [2] and in assay [3] was more than 100 µM in each case.

In the case of `CC(=O)N1CCC(c2nc3c(N)nc4cc(Br)ccc4c3[nH]2)CC1` [Compound 226], the concentration for a half-maximal effect (EC50) – broadly, the concentration giving half of the maximal effect – is 20 to 100 µM in assay [1], more than 100 µM in assay [2] and more than 100 µM in assay [3].

As to `CC(C)(C)OC(=O)N1CCC(c2nc3c(N)nc4cc(-c5ccccc5)ccc4c3[nH]2)CC1` [Compound 219], the concentration giving a half-maximal response (EC50) in assay [1] was not above 1 µM; in assay [2] it was more than 100 µM; in assay [3], more than 100 µM.

`Nc1nc2cc(Br)ccc2c2[nH]c(C3CCC(N)CC3)nc12` (stereo not shown) [Compound 131]: the concentration for a half-maximal effect (EC50) in assay [1] was 20 to 100 µM; in assay [2], more than 100 µM; in assay [3], 20 to 100 µM.

As to `COc1ccc2c(c1)nc(N)c1nc(CCCO)[nH]c12` [Compound 124], the values for the EC50 in assay [1], in assay [2] and in assay [3] were 1 to 20 µM, more than 100 µM and more than 100 µM, respectively.

Consider `Nc1nc2cc(-c3cccnc3F)ccc2c2[nH]c(CCCOCc3ccccc3)nc12` [Compound 157, 7-(2-fluoropyridin-3-yl)-2-(3-phenylmethoxypropyl)-1H-imidazo[4,5-c]quinolin-4-amine], for which the EC50 in assay [1], in assay [2] and in assay [3] was more than 100 µM in each case.

For `CC(=O)c1ccc2c(c1)nc(N)c1nc(CCCO)[nH]c12` [Compound 119], the EC50 was 1 to 20 µM in assay [1], more than 100 µM in assay [2] and more than 100 µM in assay [3].

Regarding `Nc1nc2cc(-c3ccncc3)ccc2c2[nH]c(CCCOCc3ccccc3)nc12` [Compound 148, 2-(3-phenylmethoxypropyl)-7-pyridin-4-yl-1H-imidazo[4,5-c]quinolin-4-amine], the EC50 is 20 to 100 µM in assay [1], more than 100 µM in assay [2] and more than 100 µM in assay [3].

Regarding `Nc1nc2cc(-n3cnc4ccccc43)ccc2c2[nH]c(CCCO)nc12` [Compound 182, 3-[4-amino-7-(benzimidazol-1-yl)-1H-imidazo[4,5-c]quinolin-2-yl]propan-1-ol], the EC50 in assay [1], in assay [2] and in assay [3] was more than 100 µM throughout.

In the case of `Nc1nc2cc(Br)ccc2c2[nH]c([C@H]3CC[C@@H](O)CC3)nc12` [Compound 122], the 50% effective concentration (EC50) was 1 to 20 µM in assay [1], more than 100 µM in assay [2] and more than 100 µM in assay [3].

On to `COc1cccc(-c2ccc3c(c2)nc(N)c2nc(CCCO)[nH]c23)n1` [Compound 246], for which the EC50 is 1 to 20 µM in assay [1], more than 100 µM in assay [2] and more than 100 µM in assay [3].

With `COc1ccncc1-c1ccc2c(c1)nc(N)c1nc(CCCO)[nH]c12` [Compound 171, 3-[4-amino-7-(4-methoxypyridin-3-yl)-1H-imidazo[4,5-c]quinolin-2-yl]propan-1-ol], the concentration for a half-maximal effect (EC50) in assay [1], in assay [2] and in assay [3] was more than 100 µM throughout.

For the molecule `CN1CCC[C@@H](c2nc3c(N)nc4ccccc4c3[nH]2)C1` [Compound 139], the EC50 was 20 to 100 µM in assay [1], more than 100 µM in assay [2] and more than 100 µM in assay [3].

In the case of `Nc1nc2cc(Cl)c(Cl)cc2c2[nH]c(CCCO)nc12` [Compound 126], the EC50 was 1 to 20 µM in assay [1], more than 100 µM in assay [2] and more than 100 µM in assay [3].

As to `Cn1c(CCCO)nc2c(N)nc3cc(-c4cc[nH]n4)ccc3c21` [Compound 107], the EC50 in assay [1] was not above 1 µM; in assay [2], more than 100 µM; in assay [3] it was more than 100 µM.

In the case of `CC(C(N)=O)c1ccc2c(c1)nc(N)c1nc(CCCO)[nH]c12` (stereo not shown) [Compound 120], the 50% effective concentration (EC50) in assay [1] was 1 to 20 µM; in assay [2], more than 100 µM; in assay [3], more than 100 µM.

Turning to `Nc1nc2cc(-c3cc[nH]n3)ccc2c2[nH]c(CN3CCCC3)nc12` [Compound 233], the EC50 was not above 1 µM in assay [1], more than 100 µM in assay [2] and more than 100 µM in assay [3].

Regarding `Nc1nc2cc(-c3ccccc3F)ccc2c2[nH]c(CCCO)nc12` [Compound 203, 3-[4-amino-7-(2-fluorophenyl)-1H-imidazo[4,5-c]quinolin-2-yl]propan-1-ol], the EC50 in assay [1], in assay [2] and in assay [3] was more than 100 µM each time.

Regarding `Nc1nc2cc(C3CCOCC3)ccc2c2[nH]c(CCCO)nc12` [Compound 196, 3-[4-amino-7-(oxan-4-yl)-1H-imidazo[4,5-c]quinolin-2-yl]propan-1-ol], the EC50 in assay [1], in assay [2] and in assay [3] was more than 100 µM each time.

Turning to `Nc1nc2cc(C3CCNCC3)ccc2c2[nH]c(CCCO)nc12` [Compound 198, 3-(4-amino-7-piperidin-4-yl-1H-imidazo[4,5-c]quinolin-2-yl)propan-1-ol], the EC50 in assay [1] and in assay [2] was more than 100 µM in each case.

In turn, `Nc1nc2cc(-n3cccn3)ccc2c2[nH]c(CN3CC4COCC4C3)nc12` (stereo not shown) [Compound 109] returned an EC50 in assay [1] not above 1 µM.

With `Nc1nc2cc(C3CCNC3)ccc2c2[nH]c(CCCO)nc12` (stereo not shown) [Compound 197, 3-(4-amino-7-pyrrolidin-3-yl-1H-imidazo[4,5-c]quinolin-2-yl)propan-1-ol], the EC50 in assay [1] and in assay [2] was more than 100 µM each time.

`Nc1nc2cc(Br)ccc2c2[nH]c(C3CCC(O)CC3)nc12` (stereo not shown) [Compound 116] returned a concentration giving a half-maximal response (EC50) in assay [1] of 1 to 20 µM.

Take `Nc1nc2cc(-c3cccs3)ccc2c2[nH]c(CCCOCc3ccccc3)nc12` [Compound 243]: the EC50 in assay [1] fell in the range of 1 to 20 µM.
